Test results: ChEMBL document CHEMBL4396967, “In vitro cytotoxicity screening to identify novel anti-osteosarcoma therapeutics targeting pyruvate dehydrogenase kinase 2” (Bioorg Med Chem Lett, 2019)
Each block holds one molecule with its values, some of them ahead of it. The source made the active and inactive calls. No cut-off for these calls is given here.

Experiments:
MG-63 [1] = assay: Antiproliferative activity against human MG63 cells assessed as reduction in cell viability at 10 uM incubated for 72 hrs by MTT assay relative to control; type: functional; settings: MG-63, 72 h
MG-63 [2] = assay: Antiproliferative activity against human MG63 cells assessed as reduction in cell viability incubated for 72 hrs by MTT assay; type: functional, cell-based; settings: MG-63, 72 h
SAOS-2 [3] = assay: Antiproliferative activity against human Saos2 cells assessed as reduction in cell viability at 10 uM incubated for 72 hrs by MTT assay relative to control; type: functional; settings: SAOS-2, 72 h
SAOS-2 [4] = assay: Antiproliferative activity against human Saos2 cells assessed as reduction in cell viability incubated for 72 hrs by MTT assay; type: functional, cell-based; settings: SAOS-2, 72 h
[5] = molecular target: T1, [Pyruvate dehydrogenase (acetyl-transferring)] kinase isozyme 2, mitochondrial (Homo sapiens, UniProt Q15119); assay: Inhibition of PDK2 (unknown origin) using PDCE1 as substrate at 5 uM incubated for 30 mins by kinase-Glo reagent based luminescence assay relative to control
[6] = molecular target: T1, [Pyruvate dehydrogenase (acetyl-transferring)] kinase isozyme 2, mitochondrial; assay: Inhibition of PDK2 (unknown origin) using PDCE1 as substrate incubated for 30 mins by kinase-Glo reagent based luminescence assay
[7] = molecular target: T1, [Pyruvate dehydrogenase (acetyl-transferring)] kinase isozyme 2, mitochondrial; assay: Binding affinity to PDK2 (unknown origin) assessed as dissociation constant by ITC analysis
[8] = molecular target: [Pyruvate dehydrogenase (acetyl-transferring)] kinase isozyme 1, mitochondrial (Homo sapiens, UniProt Q15118); assay: Inhibition of PDK1 (unknown origin) using PDCE1 as substrate incubated for 30 mins by kinase-Glo reagent based luminescence assay
[9] = molecular target: [Pyruvate dehydrogenase (acetyl-transferring)] kinase isozyme 3, mitochondrial (Homo sapiens, UniProt Q15120); assay: Inhibition of PDK3 (unknown origin) using PDCE1 as substrate incubated for 30 mins by kinase-Glo reagent based luminescence assay
[10] = molecular target: [Pyruvate dehydrogenase (acetyl-transferring)] kinase isozyme 4, mitochondrial (Homo sapiens, UniProt Q16654); assay: Inhibition of PDK4 (unknown origin) using PDCE1 as substrate incubated for 30 mins by kinase-Glo reagent based luminescence assay
Homo sapiens [11] = species on record: Homo sapiens; assay: Selectivity index, ratio of EC50 of PDK1 (unknown origin) to EC50 of PDK2 (unknown origin)
Homo sapiens [12] = species on record: Homo sapiens; assay: Selectivity index, ratio of EC50 of PDK3 (unknown origin) to EC50 of PDK2 (unknown origin)
Homo sapiens [13] = species on record: Homo sapiens; assay: Selectivity index, ratio of EC50 of PDK4 (unknown origin) to EC50 of PDK2 (unknown origin)
[14] = molecular target: T1, [Pyruvate dehydrogenase (acetyl-transferring)] kinase isozyme 2, mitochondrial; assay: Inhibition of PDK2 in human MG63 cells assessed as reduction in PDC phosphorylation at 2 or 5 uM incubated for 12 hrs by Western blot analysis; type: cell-based
[15] = molecular target: T1, [Pyruvate dehydrogenase (acetyl-transferring)] kinase isozyme 2, mitochondrial; assay: Inhibition of PDK2 in human MG63 cells assessed as reduction in lactate formation at 2 to 10 uM incubated for 4 hrs; type: cell-based
[16] = molecular target: T1, [Pyruvate dehydrogenase (acetyl-transferring)] kinase isozyme 2, mitochondrial; assay: Inhibition of PDK2 (unknown origin)
[17] = molecular target: T1, [Pyruvate dehydrogenase (acetyl-transferring)] kinase isozyme 2, mitochondrial; assay: Inhibition of recombinant human N-terminal His6-tagged SUMO-fused PDK2 expressed in Escherichia coli BL-21 cells preincubated for 15 mins followed by addition of [gamma33-ATP] and measured after 90 secs by Scintillation counting method

[Pyruvate dehydrogenase (acetyl-transferring)] kinase isozyme 3, mitochondrial, sequence (Q15120 whole entry): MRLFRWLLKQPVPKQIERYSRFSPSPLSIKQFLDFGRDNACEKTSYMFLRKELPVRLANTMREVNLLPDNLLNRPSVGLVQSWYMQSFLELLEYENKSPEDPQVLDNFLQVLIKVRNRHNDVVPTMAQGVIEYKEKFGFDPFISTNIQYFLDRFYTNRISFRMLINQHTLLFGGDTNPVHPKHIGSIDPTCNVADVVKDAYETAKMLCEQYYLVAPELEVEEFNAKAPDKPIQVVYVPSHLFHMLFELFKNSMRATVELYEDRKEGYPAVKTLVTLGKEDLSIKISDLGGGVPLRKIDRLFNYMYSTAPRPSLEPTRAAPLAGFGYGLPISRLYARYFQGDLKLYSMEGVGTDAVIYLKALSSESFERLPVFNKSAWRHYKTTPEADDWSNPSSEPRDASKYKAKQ
[Pyruvate dehydrogenase (acetyl-transferring)] kinase isozyme 4, mitochondrial, sequence (Q16654 whole entry): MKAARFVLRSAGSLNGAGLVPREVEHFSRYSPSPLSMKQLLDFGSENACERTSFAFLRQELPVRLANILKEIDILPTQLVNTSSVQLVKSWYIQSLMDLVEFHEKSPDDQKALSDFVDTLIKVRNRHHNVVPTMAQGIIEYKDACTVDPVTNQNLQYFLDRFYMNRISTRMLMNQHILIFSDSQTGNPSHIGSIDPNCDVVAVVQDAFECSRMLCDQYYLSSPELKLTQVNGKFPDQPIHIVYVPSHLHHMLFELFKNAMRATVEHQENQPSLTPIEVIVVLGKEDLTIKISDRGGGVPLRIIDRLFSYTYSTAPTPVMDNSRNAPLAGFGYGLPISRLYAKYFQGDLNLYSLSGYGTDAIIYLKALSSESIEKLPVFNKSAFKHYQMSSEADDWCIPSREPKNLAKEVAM
[Pyruvate dehydrogenase (acetyl-transferring)] kinase isozyme 1, mitochondrial, sequence (Q15118 whole entry): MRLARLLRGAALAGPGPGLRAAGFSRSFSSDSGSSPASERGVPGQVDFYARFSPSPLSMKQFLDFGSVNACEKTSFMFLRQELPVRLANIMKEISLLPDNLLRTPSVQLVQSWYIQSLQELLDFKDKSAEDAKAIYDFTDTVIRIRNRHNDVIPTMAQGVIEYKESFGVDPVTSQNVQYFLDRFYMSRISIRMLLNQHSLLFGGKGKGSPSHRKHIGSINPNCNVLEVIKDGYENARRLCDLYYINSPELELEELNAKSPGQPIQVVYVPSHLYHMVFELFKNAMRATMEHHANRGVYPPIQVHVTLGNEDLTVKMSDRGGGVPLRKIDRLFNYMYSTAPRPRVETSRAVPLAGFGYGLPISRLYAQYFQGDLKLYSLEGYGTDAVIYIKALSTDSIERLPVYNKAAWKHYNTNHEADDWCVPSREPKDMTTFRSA

SMILES: O=C(COc1coc(CN2CCN(c3cccc(Cl)c3)CC2)cc1=O)NC1CCCC1
inhibition at 10 µM (MG-63 [1]): 62.3%
IC50 (MG-63 [2]): 8.5 µM
inhibition at 10 µM (SAOS-2 [3]): 65.3%
IC50 (SAOS-2 [4]): 7.7 µM
inhibition [5]: 47.5%

SMILES: Cc1cc(=O)n2nc(N3CCN(C(=O)Cc4c[nH]c5ccccc45)CC3)nc2[nH]1
inhibition at 10 µM (MG-63 [1]): 60.8%
IC50 (MG-63 [2]): 9.4 µM
inhibition at 10 µM (SAOS-2 [3]): 75.9%
IC50 (SAOS-2 [4]): 7.6 µM
inhibition [5]: inactive

SMILES: O=C(CCn1ccc(=O)[nH]c1=O)N1CCC(Cc2n[nH]c(=O)n2-c2ccccc2F)CC1
inhibition at 10 µM (MG-63 [1]): 62.7%
IC50 (MG-63 [2]): 7.1 µM
inhibition at 10 µM (SAOS-2 [3]): 48.9%
IC50 (SAOS-2 [4]): > 10 µM
inhibition [5]: inactive

SMILES: CNC(=O)COc1coc(CN2CCN(c3ccccc3)CC2)cc1=O
inhibition at 10 µM (MG-63 [1]): 66.1%
IC50 (MG-63 [2]): 7.9 µM
inhibition at 10 µM (SAOS-2 [3]): 71.2%
IC50 (SAOS-2 [4]): 6.7 µM
inhibition [5]: 54.1%
EC50 [6]: 5.2 µM

SMILES: CSc1nc(N2CCOCC2)c2cnn(CCNC(=O)C3CCCC3)c2n1
inhibition at 10 µM (MG-63 [1]): 53.3%
IC50 (MG-63 [2]): > 10 µM
inhibition at 10 µM (SAOS-2 [3]): 45.1%
IC50 (SAOS-2 [4]): > 10 µM
inhibition [5]: inactive

SMILES: COc1cccc(C(=O)NCc2nc(N3CCCC3)nc(N3CCOCC3)n2)c1
inhibition at 10 µM (MG-63 [1]): 53.8%
IC50 (MG-63 [2]): 9.2 µM
inhibition at 10 µM (SAOS-2 [3]): 68.5%
IC50 (SAOS-2 [4]): 8.1 µM
inhibition [5]: inactive

SMILES: O=C(CCn1ccc(=O)[nH]c1=O)N1CCN(C2=CC3CCCCC3N=N2)CC1 (centres undefined)
inhibition at 10 µM (MG-63 [1]): 84.4%
IC50 (MG-63 [2]): 2.1 µM
inhibition at 10 µM (SAOS-2 [3]): 86.7%
IC50 (SAOS-2 [4]): 1.8 µM
inhibition [5]: inactive

Continued, in another order:

inhibition [5]: inactive
SMILES: Cc1ccccc1OCC(O)Cn1c(C2CC(=O)N(C(C)(C)C)C2)nc2ccccc21 (centres undefined)
inhibition at 10 µM (MG-63 [1]): 72.8%
IC50 (MG-63 [2]): 7.7 µM
inhibition at 10 µM (SAOS-2 [3]): 59.3%
IC50 (SAOS-2 [4]): 8.9 µM

inhibition [5]: inactive
SMILES: O=C(C1=C(CO)C(=O)N(CCCN2CCOCC2)[C@H]1c1ccncc1)c1cccs1
inhibition at 10 µM (MG-63 [1]): 86.9%
IC50 (MG-63 [2]): 1.2 µM
inhibition at 10 µM (SAOS-2 [3]): 79.3%
IC50 (SAOS-2 [4]): 2 µM

inhibition [5]: 79.7%
EC50 [6]: 1.1 µM
Kd [7]: 2.35 µM
EC50 [8]: 11.7 µM
EC50 [9]: 24.5 µM
EC50 [10]: 67 µM
Ratio EC50 (Homo sapiens [11]): 10.6
Ratio EC50 (Homo sapiens [12]): 21.9
Ratio EC50 (Homo sapiens [13]): 60.9
inhibition [14]: Active
inhibition [15]: Active
SMILES: CC(C)NC(=O)COc1coc(CN2CCN(c3ccccc3F)CC2)cc1=O
inhibition at 10 µM (MG-63 [1]): 78.6%
IC50 (MG-63 [2]): 4.7 µM
inhibition at 10 µM (SAOS-2 [3]): 75.3%
IC50 (SAOS-2 [4]): 5.6 µM

inhibition [5]: inactive
SMILES: CN(C)c1cncc(OC2CCN(C(=O)Cc3c[nH]c4ccccc34)C2)n1 (centres undefined)
inhibition at 10 µM (MG-63 [1]): 83.9%
IC50 (MG-63 [2]): 2.8 µM
inhibition at 10 µM (SAOS-2 [3]): 87.7%
IC50 (SAOS-2 [4]): 2.2 µM

inhibition [5]: inactive
SMILES: COc1ccc(N2CCn3c2nnc(C(=O)NCCCN(C)C)c3=O)cc1
inhibition at 10 µM (MG-63 [1]): 71.1%
IC50 (MG-63 [2]): 4.9 µM
inhibition at 10 µM (SAOS-2 [3]): 65.4%
IC50 (SAOS-2 [4]): 7.9 µM

inhibition [5]: 64.3%
EC50 [6]: 3.8 µM
SMILES: CC(C)NC(=O)COc1coc(CN2CCN(c3ccccc3)CC2)cc1=O
inhibition at 10 µM (MG-63 [1]): 70.6%
IC50 (MG-63 [2]): 5.8 µM
inhibition at 10 µM (SAOS-2 [3]): 74.5%
IC50 (SAOS-2 [4]): 5.3 µM

EC50 [16]: 0.08 µM
SMILES: CN(C)C(=O)c1ccc(S(=O)(=O)c2ccc(NC(=O)[C@@](C)(O)C(F)(F)F)c(Cl)c2)cc1

inhibition [5]: 20.1%
SMILES: Cc1cc(N2CCCCC2)nc(CNC(=O)CNC(=O)c2ccccc2)n1
inhibition at 10 µM (MG-63 [1]): 88.5%
IC50 (MG-63 [2]): 2.7 µM
inhibition at 10 µM (SAOS-2 [3]): 77.6%
IC50 (SAOS-2 [4]): 4.8 µM

EC50 [17]: 0.456 µM
SMILES: O=S(=O)(c1ccc(O)cc1O)N1Cc2cc(O)cc(O)c2C1
